What all share (test): inhibition of tumour cell growth, NCI panel, 48 h
Assay [1] relates to HCC 2998.
For assay [2], the system named is HCT-116.
The subject of assay [3] is HOP-62.
The test system of assay [4] is HT-29.
The test system of assay [5] is KM12.
In assay [6] the test system is MOLT-4.
Assay [7] deals with NCI-H226.
Assay [8] has as its system NCI-H460.
Assay [9] concerns OVCAR-4.
The subject of assay [10] is OVCAR-8.
Assay [11] relates to SF-295.
The subject of assay [12] is SK-MEL-28.
Assay [13] deals with SNB-75.
Assay [14] deals with SW-620.
Assay [15] deals with U-251.
Assay [16] concerns UACC-62.
Assay [17] relates to UO-31.
The subject of assay [18] is A549.
The subject of assay [19] is EKVX.
Assay [20] concerns NCI-H522.

Data on eight compounds can be found in ChEMBL document CHEMBL1201862, “PubChem BioAssay data set” (2004).

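1) Cells in 96-well plates. 2) Compound, 48 h, 5 concentrations. 3) Linear interpolation between surrounding doses. 4) Unreached endpoint = highest concentration. Abbreviation: GI50, concentration required for 50% inhibition of growth.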 Calls of active or inactive are those of the source. Cut-off read from the data, not from the text of the source: active = GI50 up to about 1.1 µM and inactive = higher.

As for `CCCOC1OC(CS(=O)(=O)O)C(OC(C)=O)C(OC(C)=O)C1OC(C)=O` (configuration not stated), the GI50 in assay [1], in [2], in assay [3], in assay [4], in assay [5] and in assay [6] was > 100 µM (inactive) each time. The GI50 in assay [7], in [8], in assay [9], in [10], in assay [11] and in assay [12] was > 100 µM (inactive) throughout. Moreover, the GI50 in assay [13], in assay [14], in assay [15], in assay [16] and in assay [17] was > 100 µM (inactive) throughout.
`COC(=O)Cc1c(-c2c(CC(=O)OC)c3ccccc3n2C2OC(COC(C)=O)C(OC(C)=O)C(OC(C)=O)C2OC(C)=O)[nH]c2ccccc12` (configuration not stated): the GI50 in assay [18], in [19], in assay [1], in assay [2], in assay [3] and in assay [4] was > 100 µM (inactive) throughout. For the same compound, the GI50 in [5] is 85.3 µM (inactive); in assay [6], > 100 µM (inactive); in assay [8], > 100 µM (inactive); in assay [20] it was 52 µM (inactive); in assay [9], > 100 µM (inactive); in assay [11], 90.8 µM (inactive). The GI50 in [12], in [14], in assay [15], in assay [16] and in assay [17] was > 100 µM (inactive) throughout.
`O=C1CCC(c2ccc(Cl)cc2)=NN1c1nsc2ccccc12`: the GI50 is 37.9 µM (inactive) in [18]; 23.3 µM (inactive) in assay [19]; 18.2 µM (inactive) in [1]; 19.7 µM (inactive) in [2]; 39.2 µM (inactive) in [3]; 30.1 µM (inactive) in [4]. Besides, the GI50 in assay [5] was 29.2 µM (inactive); in [6], 19.7 µM (inactive); in [8] it was 29.6 µM (inactive); in assay [9], 36.1 µM (inactive); in assay [10], 31.8 µM (inactive); in assay [12] it was 31.6 µM (inactive). Moreover, the GI50 is 5.77 µM (inactive) in assay [13]; 58.1 µM (inactive) in assay [14]; 34.1 µM (inactive) in [15]; 43.1 µM (inactive) in assay [16]; 18 µM (inactive) in assay [17].
As to `O=C(N/N=C\c1cccc2ccccc12)Nc1ccccc1`, the GI50 in assay [2], in assay [3], in [4], in assay [5], in assay [6] and in assay [7] was > 100 µM (inactive) in each case. In addition, the GI50 in [8], in assay [9], in assay [10], in assay [11], in assay [12] and in assay [13] was > 100 µM (inactive) throughout. Also, the GI50 in [14], in assay [15], in [16] and in assay [17] was > 100 µM (inactive) in each case.
As for `O=C1N[C@@H]2C(=C[C@H](O)[C@@H](O)[C@H]2O)c2cc3c(c(O)c21)OCO3` [NARCICLASINE], the GI50 in [18], in assay [19], in assay [1], in assay [2], in assay [3] and in assay [4] was 0.045 µM (active) each time. For the same compound, the GI50 is 0.045 µM (active) in [5]; 0.045 µM (active) in assay [6]; 0.045 µM (active) in assay [7]; 0.045 µM (active) in [8]; 0.142 µM (active) in assay [9]; 0.045 µM (active) in [10]. The GI50 is 0.0634 µM (active) in [11]; 0.045 µM (active) in assay [12]; 0.045 µM (active) in [13]; 0.045 µM (active) in [14]; 0.045 µM (active) in [15]; 0.045 µM (active) in assay [16]. Besides, in assay [17], the GI50 was 0.045 µM (active).
Consider `Cc1ccc2c(=O)c3ccccc3sc2c1`, for which the GI50 in assay [18] was > 100 µM (inactive); in assay [19] it was 55.2 µM (inactive); in assay [1], > 100 µM (inactive); in assay [2], > 100 µM (inactive); in [3], > 100 µM (inactive); in assay [4], 77.3 µM (inactive). In addition, the GI50 is 53.7 µM (inactive) in [5]; 72.8 µM (inactive) in assay [6]; > 100 µM (inactive) in [7]; > 100 µM (inactive) in assay [8]; > 100 µM (inactive) in [20]; > 100 µM (inactive) in assay [9]. Also, the GI50 in assay [10], in assay [12], in assay [14], in [15], in assay [16] and in assay [17] was > 100 µM (inactive) in each case.
With `CCCCCCCCCCCCCCCC(=O)OC1C(O)C(CO)OC(OC)C1NC(=O)N(CCCl)N=O` (configuration not stated), the GI50 in assay [18] was 10.3 µM (inactive); in assay [19] it was 20.1 µM (inactive); in [2], 14.3 µM (inactive); in [3], 15.4 µM (inactive); in assay [4], 12.8 µM (inactive); in assay [5] it was 16.5 µM (inactive). Besides, the GI50 in assay [6] is 3.08 µM (inactive); in [7], 16.6 µM (inactive); in [8], 3.78 µM (inactive); in assay [20] it was 10.7 µM (inactive); in [9] it was 20.6 µM (inactive); in [10] it was 17.8 µM (inactive). Moreover, the GI50 in assay [11] is 10.6 µM (inactive); in [12] it was 14.2 µM (inactive); in assay [13], 12 µM (inactive); in assay [14], 10.9 µM (inactive); in assay [15], 5.22 µM (inactive); in assay [16] it was 2 µM (inactive). Moreover, in [17], the GI50 was 15.2 µM (inactive).
Regarding `O=[PH](O)c1cccs1`, the GI50 in assay [18], in assay [19], in [2], in [4], in assay [6] and in [8] was > 100 µM (inactive) throughout. For the same compound, the GI50 in assay [20], in [10], in [11], in assay [12], in assay [14] and in assay [15] was > 100 µM (inactive) throughout. In addition, the GI50 in assay [16] and in [17] was > 100 µM (inactive) each time.
